Measurements reported in paper PMC12011790, “Synergistic chemo-immunotherapy for osteosarcoma via a pH-responsive multi-component nanoparticle system” (Frontiers in Pharmacology, 2025).

How the values were obtained:
[1] = Stability (retention) of the PD-1/PD-L1 peptide in PBS and FBS-containing PBS, HPLC; format: in vitro ADME; conditions: 48 h; for peptide content remaining: peptide conjugated in co-loaded nanoparticles, FBS-containing PBS (50% FBS), mean ± SD, n = 3, SD
Text: […] Peptide content was quantified using high-performance liquid chromatography (HPLC). This analysis aimed to determine peptide degradation in PBS and FBS-containing media, considering the potential influence of protease activity present in serum.

LM8 cells [2] = assay: Extracellular ATP release, bioluminescence kit; format: cell-based, murine; conditions: LM8 culture supernatant, 10 μM DOX or equivalent, 24 h, mean ± SEM by Figure 3 legend
Method: (§1) The immunogenic cell death (ICD) biomarkers, including calreticulin (CRT), high-mobility group box 1 (HMGB1), and adenosine triphosphate (ATP), were analyzed. LM-8 cells were seeded in 24-well plates at a density of 1 × 10^5 cells per well, and the cells were allowed to grow to an appropriate confluence.
On the other hand, additional sets of cells received identical treatments were employed to determine the released HMGB1 and ATP. Briefly, culture supernatant was collected and centrifuged to remove cell debris. Subsequently, the extracellular HMGB1 was quantified using an enzyme-linked immunosorbent assay (ELISA) kits (R&D systems, China), whereas the supernatant ATP was quantified using a bioluminescence kit (No. S0026, Beyotime, China) and measured by a multifunction microplate reader.

LM8 cells [3] = assay: Calreticulin (CRT) surface exposure, flow cytometry; format: cell-based, murine; conditions: 10 μM DOX or equivalent, 24 h, mean ± SEM by Figure 3 legend
Method: as §1
After treatment, the cells were digested, collected, and washed twice with cold PBS. To determine the surface expression of CRT, the cells were blocked with CD16/32 antibody for 10 min, incubated with Alexa 488-anti-CRT antibody (EPR3924, 1:500 v/v, Abcam) for 15 min at 4°C, washed once with PBS, resuspended with PBS, and detected by flow cytometry.

[4] = cumulative doses exceeding 550 mg/m^2; ref Alberts and Garcia, 1997; Treat et al., 1990; cited from earlier work
Text: A major challenge in OS treatment lies in the toxicity associated with conventional chemotherapeutic agents. […] Although reducing DOX dosage can alleviate the cardiotoxicity, this reduction risks compromising the therapeutic efficacy, particularly its ability to induce immunogenic cell ...

LM8 osteosarcoma = assay: Antitumor efficacy in LM8-bearing osteosarcoma model; format: in vivo; conditions: LM8-bearing C3H/HeJ mice, tail vein, DOX equivalent 10 mg/kg every other day, 7 doses, n = 5
Method: To investigate the in vivo antitumor effects, male C3H/HeJ mice (8–10 weeks old) were purchased from GemPharmatech (Nanjing, China). All animal experiments were conducted with the relevant institutional guidelines of Jiangsu University, and were approved by the Institutional Animal Care And Use Committees of Jiangsu University (UJS-IACUC-2024080202).
[…] LM8-bearing OS model was established by injected subcutaneously 1 × 10^7 LM8 cells into the backs of mice. Tumor growth was allowed to proceed for approximately 7 days prior to treatment until the tumors reached a measurable size. Tumor size was monitored using a caliper, with tumor volume calculated according to the formula: (length × width^2)/2.
(§2) Each group received the corresponding treatment via tail vein injection, with a DOX equivalent dose of 10 mg/kg administered every other day for a total of 7 doses. Tumor volume and mouse body weight were recorded every other day during the treatment. On day 14, the mice were euthanized under anesthesia, and the tumors were excised and weighed for further analysis. The tumor was further stained with hematoxylin and eosin (H&E) after mice sacrificed.

[5] = Body weight during treatment (systemic toxicity); format: in vivo, C3H/HeJ mice; conditions: LM8-bearing mice; tail vein, DOX equivalent 10 mg/kg every other day, 7 doses
Method: as §2

[6] = system: immune cell populations in the tumor, and tumor-draining lymph nodes; assay: Flow cytometric immune cell profiling of tumor and tumor-draining lymph nodes; format: in vivo, C3H/HeJ mice; conditions: post-treatment, flow cytometry
Text: Flow cytometry was applied to characterize the change in immune cell populations in the tumor, and tumor-draining lymph nodes (TDLNs). Excised tumors were harvested, homogenized and consecutively strained through 70-μm filters to obtain single cell suspensions, while the lymph nodes were manually dissociated through a 40-μm filter to obtain a single cell suspension. Cells were stained with fluorescent antibodies to identify immune cell pollutions.
Single-cell suspensions of TDLNs were stained with CD11c (clone N418; Biolegend), CD80 (clone 16-10A1; Biolegend), CD86 (clone GL1; Biolegend) for the analysis of mature DCs.
Single-cell suspensions of tumor tissues were stained with CD3 (clone 145-2C11; BD), CD4 (clone RM4-5; BD), CD8 (clone 53–6.7; Biolegend), CD62L (clone MEL-14; Biolegend), or CD44 (clone 1M7; Biolegend) antibodies for flow cytometry analysis. For intracellular cytokine and marker staining, after extracellular staining, cells were fixed and permeabilized with BD Cytofix/Cytoperm kit (BD Biosciences) and incubated with fluorescently conjugated antibodies against IFNγ (clone XMG1.2; Biolegend) or granzyme B (clone GB11; Biolegend) antibodies. […] Samples were run on a Beckman Coulter Gallios™ flow cytometer and analyzed using FlowJo software.

[7] = system: LM8 murine osteosarcoma cells; assay: CCK-8 cell viability; format: cell-based; conditions: 48 h, pH not stated, mean ± SD, n = 3
Method: The LM8 murine osteosarcoma cell line, derived from C3H/He mice, was purchased from HyCyte™ (Suzhou, China). LM8 cells were maintained in Dulbecco’s modified Eagle’s medium (DMEM, Gibco, NY, United States) supplemented with 10% fetal bovine serum (FBS, Gibco). Cells were cultured at 37°C in an incubator under 5% CO2.
LM-8 cells were seeded at a density of 1 × 10^6 cells/mL in a 96-well plate. After 24 h incubation, the culture medium was replaced with 100 μL of medium containing serial dilutions of different treatment samples. After 48 h incubation, 10 μL of the CCK-8 reagent (Dojindo, Kyushu, Japan) was added into each well and incubated for further 2 h at 37°C. The absorbance of each sample was measured at 450 nm using a multifunction microplate reader (Biotek, VT, United States).

Row | Molecule | peptide remaining intact ([1]; peptide conjugated as DSPE-PEG-peptide in co-loaded nanoparticles, PBS, 37°C, n = 3) | peptide content remaining ([1]; 25°C) | peptide content remaining ([1]; 37°C) | extracellular ATP level (LM8 cells [2]) | CRT exposure (% of cells) (LM8 cells [3]) | long-term survivors affected by cardiotoxicity [4] | tumor growth (tumor volume) (LM8 osteosarcoma; 14 days) | tumor mass at end of study (LM8 osteosarcoma; day 14) | body weight change [5] | infiltrated CTLs (CD3+CD8+) in tumor tissue [6] | IC50 [7]
1 | CGGGGSHFSASYDKYAEKF [PD-1/PD-L1 targeting peptide] | over 90% | 78.57% ± 0.81% | 72.32% ± 1.26% |  |  |  |  |  |  |  | 
2 | COc1cccc2c1C(=O)c1c(O)c3c(c(O)c1C2=O)C[C@@](O)(C(=O)CO)C[C@@H]3O[C@H]1C[C@H](N)[C@H](O)[C@H](C)O1.Cl [free DOX, Doxorubicin hydrochloride] |  |  |  | 266.05 ± 42.73 nM | 73.04% ± 6.35% | approximately 30% | moderate reduction in tumor growth | moderate reductions in tumor mass | significant weight loss | moderate CTLs infiltration | 13.3 ± 1.24 µM
